Legend:
CFTR R1162X = assay: Functional CFTR channel activity, TECC-24 electrophysiology, 16HBE cells (CFTR R1162X readthrough); assay type: cell-based, human
Method: 16HBE human bronchial epithelial cells were seeded onto Transwell 24-well filter inserts coated with human collagen type IV. Cells were seeded 7 days prior to functional testing at a density of 1.7×10^5 cells onto the “apical” chamber filter of the Transwell insert. Cells were grown as submerged cultures (200 μL apical/700 μL basolateral) in Minimal Essential Medium (MEM) containing 10% qualified Fetal Bovine Serum and 1% Penicillin/Streptomycin and incubated at 37° C. and 5% CO2. Growth media on cells was replenished with fresh media every 1-3 days prior to test agent treatment day. After 7 days in culture, the CFTR-mediated chloride (Cl^−) equivalent current (Ieq) of the 16HBE cells was recorded, which may typically form electrically tight epithelia with a transepithelial resistance (Rt) of 2000-6000 Ω·cm2 as described below. Forty-eight hours prior to electrophysiological measurements, fresh growth media containing the test agents was applied to both chambers separating filter bound epithelial monolayer.
On the day of electrophysiology studies, electrodes of a “Multi-(24-channel) transepithelial current clamp amplifier” (MTECC-24 (TECC-24 for short), EP Devices, Belgium) were soaked in an assay buffer (see below for composition) for at least 2 hours using 24-well Transwell plates without inserts. Cell culture media was replaced in the Transwell assay plates with assay buffer (see below) and the plates were mounted onto a custom-built automated robotic assay platform (Yamaha RCX240S controller) with heated plate holders set at 37° C. for 60 min. After equilibration, transepithelial potential difference (PD) and resistance (Rt) was monitoredat ˜5 min intervals using the TECC-24 transepithelial current clamp. Electrode potential differences were monitored for each pair of Ag/AgCl voltage electrodes by taking voltage measurements from a control (“blank”) plate with matching buffer solutions and 16HBE cells that were not treated with any test agent. PD values for each electrode pair were subtracted from the blank plate from that of the test plates at each time point. Ieq was calculated from the corrected PD values and Rt using Ohm's law. Ieq values were slope corrected to account for measurement drift over time using the equation: Slope corrected value=calculated Ieq−((time x slope)+y-intercept) with the slope and y-intercept calculated from the data points captured during the initial baseline period and following addition of the CFTR inhibitor.
The equivalent current (Ieq) traces associated with CFTR channel activation were plotted as baseline subtracted mean±standard deviation from 3-4 separate wells on the 24-well Transwell (n=3-4). There are 4 recording periods, with the first set of data points recorded baseline Ieq currents prior to sequential activation of available CFTR channels with forskolin (10 μM) and then in combination with potentiator VX-770/ivacaftor (1 μM). Recorded the last set of data points in the presence of CFTR inhibitor CFTRinh-172 (20 μM) to confirm that currents are mediated via activation of CFTR channels. The test agents and control/reference compounds were pre-diluted to 10-fold concentrations in assay buffer and added manually using a multi-channel pipette to both the basolateral and apical side of the membrane (test plates only). Employed CFTR-mediated changes in Ieq, (i.e. forskolin/VX-770 activated currents) to measure functional CFTR surface expression or treatment-related functional rescue of mutant CFTR.
The magnitude of test agent mediated enhancement of functional CFTR currents was calculated by comparing forskolin/VX-770 stimulated Ieq relative to baseline/CFTRinh-172 Ieq following 48 hour pretreatment with test agent(s) and normalizing to the forskolin/VX-770 stimulated Ieq determined following 48 hour pretreatment with a maximally effective concentration a reference control aminoglycoside agent (typically 110 μM G418). […]

[1] = tested on: recombinant human CFTR carrying the premature stop codon (PTC) mutation G542X; assay: CFTR-PTC mutant translation readthrough, Nanoluc tagged CFTR luminescence (G542X cell line); assay type: cell-based; conditions: in combination with G418, G542X cell line; for CFTR G542X ACTIVITY Fold 10 μM G-418: fold over 10 μM G-418; for EC50: 16HBE cells
Procedure, shortened: (§1)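 Readthrough is the 48 h compound-induced luminescence increase scaled to that of maximal G418 (125-250 μM). Compounds run from 50 μM final in 2-fold steps, ±10 μM G418, on 16HBE lines carrying Nanoluc-tagged CFTR G542X (extracellular loop 4 tag) or R1162X (C-terminal tag), with 3 μM VX-809 present.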

[2] = tested on: recombinant human CFTR carrying the premature stop codon (PTC) mutation R1162X; assay: CFTR-PTC mutant translation readthrough, Nanoluc tagged CFTR luminescence (R1162X cell line); assay type: cell-based; conditions: for CFTR R1162X ACTIVITY Fold 10 μM G-418: fold over 10 μM G-418, in combination with G418; for EC50: in combination with G418, 16HBE cells, read-out: CFTR R1162X ACTIVITY EC50
Procedure, shortened: as §1

[3] = RTM 5 uM, no eRF3 modulator, G418 10 uM
[4] = RTM conc. —, eRF3 modulator (CC-90009) 1 uM, ELX-02 100 uM
[5] = RTM 5 uM, eRF3 modulator (CC-90009) 10 uM, G418 10 uM
[6] = RTM 1 uM, no eRF3 modulator, ELX-02 100 uM

Row | EC50 [1] | EC50 [2] | SMILES | CFTR G542X ACTIVITY Fold 10 μM G-418 [1] | CFTR R1162X ACTIVITY Fold 10 μM G-418 [2] | other results
1 |  |  | O=C1O[C@H](CO)CN1c1ccc(OCc2c(Cl)cccc2Cl)cc1 [drawing 817] |  |  | Currents (% of 110 μM G418 (Max effect)) (CFTR R1162X; [3]): 54 % of 110 μM G418 (Max effect)
2 |  |  | Cc1cccc(C(F)(F)F)c1COc1ccc(-c2nc(CO)n[nH]2)cc1 [drawing 805] |  |  | Currents (% of 110 μM G418 (Max effect)) (CFTR R1162X; [4]): 63 % of 110 μM G418 (Max effect)
3 |  |  | OCc1ncn(-c2ncc(OCc3c(Cl)cccc3C(F)(F)F)cn2)n1 [drawing 811] |  |  | Currents (% of 110 μM G418 (Max effect)) (CFTR R1162X; [4]): 77 % of 110 μM G418 (Max effect)
4 |  |  | O=C1O[C@H](CO)CN1c1ccc(OCc2c(Cl)cccc2Cl)cc1 [drawing 818] |  |  | Currents (% of 110 μM G418 (Max effect)) (CFTR R1162X; [5]): 314 % of 110 μM G418 (Max effect)
5 |  |  | OCc1ncn(-c2ncc(OCc3c(Cl)cccc3C(F)(F)F)cn2)n1 [drawing 812] |  |  | Currents (% of 110 μM G418 (Max effect)) (CFTR R1162X; RTM 3 uM, eRF3 modulator (CC-90009) 1 uM, ELX-02 100 uM): 288 % of 110 μM G418 (Max effect)
6 |  |  | O=C1N[C@H](CO)CN1c1ccc(OCc2c(Cl)cccc2Cl)cn1 [drawing 808] |  |  | Currents (% of 110 μM G418 (Max effect)) (CFTR R1162X; [4]): 63 % of 110 μM G418 (Max effect)
7 |  |  | OCc1cn(-c2ncc(OCc3c(Cl)cccc3Cl)cn2)cn1 [drawing 798] |  |  | Currents (% of 110 μM G418 (Max effect)) (CFTR R1162X; RTM 0.5 uM, eRF3 modulator (CC-90009) 1 uM, G418 10 uM): 472 % of 110 μM G418 (Max effect)
8 |  |  | Cc1cccc(C(F)(F)F)c1COc1ccc(N2CC(CO)OC2=O)cc1 (centres unmarked) [drawing 815] |  |  | Currents (% of 110 μM G418 (Max effect)) (CFTR R1162X; RTM 1 uM, no eRF3 modulator, G418 10 uM): 76 % of 110 μM G418 (Max effect)
9 |  |  | OCc1ccn(-c2ncc(OCc3c(Cl)cccc3Cl)cn2)n1 [drawing 801] |  |  | Currents (% of 110 μM G418 (Max effect)) (CFTR R1162X; [6]): 102 % of 110 μM G418 (Max effect)
10 |  |  | OCc1ccn(-c2ncc(OCc3c(Cl)cccc3Cl)cn2)n1 [drawing 802] |  |  | Currents (% of 110 μM G418 (Max effect)) (CFTR R1162X; [4]): 63 % of 110 μM G418 (Max effect)
11 |  |  | O=C1O[C@@H](CO)CN1c1ccc(OCc2c(Cl)cccc2Cl)cc1 [drawing 820] |  |  | Currents (% of 110 μM G418 (Max effect)) (CFTR R1162X; [5]): 320 % of 110 μM G418 (Max effect)
12 |  |  | OCc1cn(-c2ncc(OCc3c(Cl)cccc3Cl)cn2)cn1 [drawing 799] |  |  | Currents (% of 110 μM G418 (Max effect)) (CFTR R1162X; RTM 0.5 uM, no eRF3 modulator, ELX-02 100 uM): 51 % of 110 μM G418 (Max effect)
13 |  |  | Cc1cccc(C(F)(F)F)c1COc1ccc(-c2nc(CO)n[nH]2)cc1 [drawing 804] |  |  | Currents (% of 110 μM G418 (Max effect)) (CFTR R1162X; [6]): 106 % of 110 μM G418 (Max effect)
14 |  |  | O=C1O[C@@H](CO)CN1c1ccc(OCc2c(Cl)cccc2Cl)cc1 [drawing 819] |  |  | Currents (% of 110 μM G418 (Max effect)) (CFTR R1162X; [3]): 81 % of 110 μM G418 (Max effect)
15 |  |  | OCc1ccn(-c2ncc(OCc3c(Cl)cccc3Cl)cn2)n1 [drawing 803] |  |  | Currents (% of 110 μM G418 (Max effect)) (CFTR R1162X; RTM 1 uM, eRF3 modulator (CC-90009) 1 uM, ELX-02 100 uM): 300 % of 110 μM G418 (Max effect)
16 | 1000 to 10000 nM | 1000 to 10000 nM | Cc1cccc(C)c1COc1ccc(-n2ccc(CO)n2)nc1 [[1-[5-[(2,6-dimethylphenyl)methoxy]-2-pyridyl]pyrazol-3-yl]methanol] | A′ (A′ = ≥10X) | A′ (A′ = ≥10X) | 

Row | EC50 [1] | EC50 [2] | SMILES | CFTR G542X ACTIVITY Fold 10 μM G-418 [1] | CFTR R1162X ACTIVITY Fold 10 μM G-418 [2] | other results
17 | 1000 to 10000 nM | 1000 to 10000 nM | Clc1cccc(Cl)c1COc1cnc(N2CCOCC2)nc1 [4-[5-[(2,6-dichlorophenyl)methoxy]pyrimidin-2-yl]morpholine] | A′ (A′ = ≥10X) | A′ (A′ = ≥10X) | 
18 | 1000 to 10000 nM | 1000 to 10000 nM | CN(C(N)=O)c1ncc(OCc2c(Cl)cccc2Cl)cn1 [1-[5-[(2,6-dichlorophenyl)methoxy]pyrimidin-2-yl]-1-methyl-urea] | A′ (A′ = ≥10X) | A′ (A′ = ≥10X) | 
19 | < 1000 nM | < 1000 nM | Cc1cccc(C(F)(F)F)c1COc1ccc(-n2cc(CO)nn2)nc1 | A′ (A′ = ≥10X) | A′ (A′ = ≥10X) | 
20 | < 1000 nM | < 1000 nM | Cc1cccc(C(F)(F)F)c1COc1cnc(N2CCO[C@H](CN)C2)nc1 | A′ (A′ = ≥10X) | A′ (A′ = ≥10X) | 
21 | 1000 to 10000 nM | 1000 to 10000 nM | CS(=O)(=O)NCC1CN(c2ncc(OCc3c(Cl)cccc3Cl)cn2)CCO1 (centres unmarked) | A′ (A′ = ≥10X) | B′ (B′ = ≥5X to <10X) | 
22 | 1000 to 10000 nM | > 10000 nM | OCc1cn(-c2ccc(CCc3c(Cl)cccc3Cl)cn2)cn1 [[1-[5-[2-(2,6-dichlorophenyl)ethyl]-2-pyridyl]imidazol-4-yl]methanol] | B′ (B′ = ≥5X to <10X) | ′ | 
23 | < 1000 nM | < 1000 nM | [2H]C([2H])(O)c1ncn(-c2ccc(OC([2H])([2H])c3c(Cl)cccc3C(F)(F)F)cc2)n1 | C′ (C′ = <5X) | C′ (C′ = <5X) | 
24 | 1000 to 10000 nM | 1000 to 10000 nM | CNC(=O)C1CCN(c2ncc(OCc3c(Cl)cccc3Cl)cn2)CC1 | A′ (A′ = ≥10X) | A′ (A′ = ≥10X) | 
25 | 1000 to 10000 nM | 1000 to 10000 nM | OC[C@H]1CN(c2ncc(OCc3c(Cl)cccc3Cl)cn2)CCO1 [[(2R)-4-[5-[(2,6-dichlorophenyl)methoxy]pyrimidin-2-yl]morpholin-2-yl]methanol] | A′ (A′ = ≥10X) | A′ (A′ = ≥10X) | 
26 | < 1000 nM | 1000 to 10000 nM | OCc1cc(-c2ncc(OCc3c(Cl)cccc3C(F)(F)F)cn2)[nH]n1 | A′ (A′ = ≥10X) | A′ (A′ = ≥10X) | 
27 | 1000 to 10000 nM | 1000 to 10000 nM | OCc1cnn(-c2ncc(OCc3c(Cl)cccc3Cl)cn2)n1 [[2-[5-[(2,6-dichlorophenyl)methoxy]pyrimidin-2-yl]triazol-4-yl]methanol] | A′ (A′ = ≥10X) | A′ (A′ = ≥10X) | 
28 | 1000 to 10000 nM | 1000 to 10000 nM | Cc1cccc(C(F)(F)F)c1COc1cnc(N2CCS(=O)(=O)C(CO)C2)nc1 (centres unmarked) [[4-[5-[[2-methyl-6-(trifluoromethyl)phenyl]methoxy]pyrimidin] | A′ (A′ = ≥10X) | A′ (A′ = ≥10X) | 
29 | 1000 to 10000 nM | 1000 to 10000 nM | NC(=O)N1CCN(c2ncc(OCc3c(Cl)cccc3Cl)cn2)CC(O)C1 (centres unmarked) | A′ (A′ = ≥10X) | A′ (A′ = ≥10X) | 
30 | < 1000 nM | < 1000 nM | Cc1cccc(C(F)(F)F)c1COc1cnc(N2CCC(O)(c3cccnc3)CC2)nc1 | A′ (A′ = ≥10X) | A′ (A′ = ≥10X) | 
31 | < 1000 nM | < 1000 nM | Cc1cccc(C(F)(F)F)c1COc1cnc(N2CCC[C@H](O)C2)nc1 | A′ (A′ = ≥10X) | A′ (A′ = ≥10X) | 
32 | 1000 to 10000 nM | 1000 to 10000 nM | O=C1CCC(=O)N1c1ccc(OCc2c(Cl)cccc2Cl)cc1 [1-[4-[(2,6-dichlorophenyl)methoxy]phenyl]pyrrolidine-2,5-dione] | A′ (A′ = ≥10X) | B′ (B′ = ≥5X to <10X) | 
